Results: patent US20030039661A1, “Methods, compositions and kits for preserving antigenicity” (priority 2001, published 2003)
One block for each compound: values may come before it. Peptide text beside a SMILES is read from it. * marks the point of attachment. Cbz = O=C(OCc1ccccc1)*; CH2F = FC*

Tests used:
[1] = system: mammary epithelial cells; conditions: in the absence of extracellular matrix; cited from earlier work
[2] = system: T-lymphocyte cell line; conditions: cited from earlier work
[3] = system: motoneurons; conditions: in vitro and in vivo; cited from earlier work
[4] = system: granulocytes in whole blood; assay: Whole blood assay: survival of granulocytes in whole blood by hypodiploid analysis; format: cell-based
Description: The following protocol was followed:
200 μl blood sample/2.8 ml 1× lysis solution in a 15 ml polypropylene conical tube.
Add 20 μl/sample anti-CD32-FITC. Incubate 30 minutes on ice in the dark.
Add 3 ml/sample ice-cold 95% EtOH dropwise while vortexing gently.
Resuspend each sample in 50 μl 5 mg/ml RN'ase. Transfer sample to 900 μl/sample.
50 μg/ml Propidium Iodide in 12×75 mm Falcon polystyrene tubes.
Analyze samples by flow cytometry (argon laser) for forward and side scatter and fluorescence.
Survival of granulocytes in whole blood was measured by hypodiploid analysis in a similar fashion to isolated granulocytes via flow cytometry. ICE/ced-3 inhibitors of the present invention maintained survival of granulocytes in whole blood for 96 hours at room temperature as indicated in the table below: […]

[5] = system: granulocytes; assay: Respiratory burst in isolated neutrophils measured by chemiluminescence (opsonized zymosan); format: cell-based; conditions: FIG. 7
Description: Respiratory Burst in Isolated Neutrophils Measured by Chemiluminescence
Whole blood anticoagulated with Acid Citrate Dextrose (ACD) with a ratio of 1:5 ACD to blood was collected (150 ml).
Neutrophils were isolated as described above.
Opsonized zymosan was prepared by suspending 125 mg zymosan particles in 25 ml pooled human serum (5 mg/ml) and incubating them for 20 minutes at 37° C. Centrifuge the suspension and resuspend the particles in 7 ml of PBS (18 mg/ml) and stored on ice until use (vortex prior to pipetting).
50 ml of a 250 μM solution of Lucigenin (MW 510.5) was prepared by dissolving 6.4 mg of the solid in 50 ml of PBS-G (+Ca, Mg). 10 μl of PBS-G (+Ca, Mg) to the wells in a white 96 well plate.
50 μl of the 250 μM Lucigenin solution was added to the wells in a white 96 well plate.
Cell preparations were obtained from cell culture (concentration at time zero=5.0×10^6 cells/ml) with PBS-G (+Ca, Mg).
20 μl of the neutrophil suspension was suspended to the appropriate wells and the plate was incubated at 37° C. for three minutes. 10 μl of the opsonized zymosan was added to the wells.
The plate was read on the luminometer (Labsystems Luminoskan, Needham Heights, Mass.) for 14 min. at 37° C. in the kinetic mode and record results using the software DeltaSoft.
The ability to undergo the respiratory burst is another measure of granulocyte viability. The respiratory burst is a physiological response of granulocytes to foreign stimuli such as bacteria. In this example, the method for inducing the respiratory burst utilized opsonized bacterial zymosan. The respiratory burst was measured via chemiluminescence.

[6] = system: granulocytes; assay: Granulocyte survival, hypodiploid nuclei by propidium iodide flow cytometry (isolated granulocytes in culture); format: cell-based; conditions: FIG. 6; for IC50: isolated granulocytes cultured at 37° C., read-out: IC50 for granulocyte survival (hypodiploid DNA)
Description: Neutrophil Culture Conditions:
The culture media was as follows: (RPMI 1640; 10% FBS; 10 mM Hepes; 0.2 mM L-glutamine; 25 U/ml penicillin; and […] streptomycin).
Purified neutrophil maintenance was performed under the following conditions: (5×10^6 cells/ml in above culture media; Polystyrene round-bottom 96-well plates; 250 μl/well; and 37° C., 5% CO2/95% air humidified incubator) (Liles et al., Blood 119 (1995) 3181-3188).
Analysis of Hypodiploid Nuclei by Flow Cytometry:
(50 μg/ml propidium iodide (Sigma catalog#P4170); 0.1% Triton X-100; and 0.1 sodium citrate).
Neutrophils were pelleted at 4° C. and the supernate aspirated.
Neutrophils were resuspended in hypotonic fluorochrome solution at a density of 5×10^6 cells/ml. Propidium iodide fluorescence of individual nuclei was evaluated in FL2 and measured on a logarithmic scale while gating on physical parameters in forward and side scatter to exlude cell debris.
At least 10,000 events per sample were collected and the results were evaluated relative to a non-apoptotic neutrophil population. (Liles et al., Blood 119 (1995) 3181-3188).
The present invention provides methods to enhance the ex vivo survival of neutrophils/granulocytes. To establish the ability of compounds to preserve granulocytes in culture, compounds were tested in a number of in vitro assays. One common model to test for effects on granulocyte survival involves separating granulocytes from fresh whole blood, culturing the cells at 37° C. and testing cells for nuclear hypodiploidy at 24 hour intervals (as described in Example 110). The presence of hypodiploid DNA is a measure of apoptosis, and is assessed using a propidium iodide stain via flow cytometry. Compounds of the present invention were incubated with the granulocytes in culture, their effects on granulocyte survival measured, and an IC50 calculated.

[7] = after granulocyte culture for 72 hours
[8] = granulocyte culture for 48 hours

melting point: 140 to 144 °C (dec.)
Compound: O=C(O)C[C@H](NC(=O)OCc1ccccc1)C(=O)N[C@H]1CCc2cccc3c2N(C1=O)[C@H](C(=O)N[C@H]1CC(=O)OC1O)C3 (some centres unmarked) [Example 88]

melting point: 109 to 111 °C (dec.)
Compound: O=C(O)C[C@H](NC(=O)[C@@H]1Cc2cccc3c2N1C(=O)[C@@H](NC(=O)OCc1ccccc1)CC3)C(=O)COP(=O)(c1ccccc1)c1ccccc1 [Example 109, 3-[(2S-cis)-[5-benzyloxycarbonylamino-1,2,3,4,5,6,7-hexahydro-4-oxoazepino[3,2,1-hi]indole-2-carbonyl]amino]-5-(diphenylphosphinyl)oxy-4-oxo-pentanoic Acid]

melting point: 101 to 104 °C
Compound: O=C1C[C@H](NC(=O)[C@@H]2Cc3cccc4c3N2C(=O)[C@@H](NC(=O)OCc2ccccc2)CC4)C(O)O1 (some centres unmarked) [Example 78]

melting point: 210 to 215 °C (dec.)
Compound: CC(=O)N[C@H]1CCc2cccc3c2N(C1=O)[C@H](C(=O)N[C@H]1CC(=O)OC1O)C3 (some centres unmarked) [Example 94]

melting point: 145 to 160 °C (dec.)
Compound: O=C(O)CCC(=O)N[C@H]1CCc2cccc3c2N(C1=O)[C@H](C(=O)N[C@H]1CC(=O)OC1O)C3 (some centres unmarked) [Example 85]

melting point: 78 to 81 °C
Compound: O=C(CCc1ccccc1)N[C@H]1CCc2cccc3c2N(C1=O)[C@H](C(=O)N[C@H]1CC(=O)OC1O)C3 (some centres unmarked) [Example 91]

melting point: 160 to 175 °C (dec.)
Compound: CC(=O)N[C@@H](CC(=O)O)C(=O)N[C@H]1CCc2cccc3c2N(C1=O)[C@H](C(=O)N[C@H]1CC(=O)OC1O)C3 (some centres unmarked) [Example 82]

melting point: 202 to 203 °C (dec.)
Compound: O=C1C[C@H](NC(=O)[C@@H]2Cc3cccc4c3N2C(=O)[C@@H](NC(=O)c2cccc3ccccc23)CC4)C(O)O1 (some centres unmarked) [Example 97]

melting point: 120 to 123 °C (dec.)
Compound: O=C1C[C@H](NC(=O)C2CCc3cccc4c3N2C(=O)[C@@H](NC(=O)OCc2ccccc2)CC4)C(O)O1 (some centres unmarked) [Example 103]

melting point: 204 to 205 °C (dec.)
Compound: O=C1C[C@H](NC(=O)[C@@H]2Cc3cccc4c3N2C(=O)[C@@H](NC(=O)c2ccccc2)CC4)C(O)O1 (some centres unmarked) [Example 100]

Continued, compound first:

Compound: CC(C)(C)OC(=O)N[C@@H](CC(=O)OCc1ccccc1)C(=O)CCl [Boc-D-(benzyl) chloromethylketone]
cell death of mammary epithelial cells [1]: prevented

Compound: CC(=O)N[C@@H](CC(=O)O)C(=O)N[C@@H](CCC(=O)O)C(=O)N[C@H](C(=O)N[C@H](C=O)CC(=O)O)C(C)C [acetyl-DEVD-aldehyde]
anti-Fas induced apoptosis [2]: inhibited

Compound: acetyl-AD-aldehyde
death of motoneurons [3]: blocked

Compound: Cc1c(C(=O)N[C@H](C(=O)NC(CC(=O)O)C(=O)CF)C(C)C)n(C)c2ccccc12 (some centres unmarked) [Example 43, N-[(1.3-dimethylindole-2-carbonyl)valinyl]-3-amino-4-oxo-5-fluoropentanoic Acid]
Percentage of diploid granulocytes in whole blood ([4]; 96 hours at room temperature): 91% | Percentage of diploid granulocytes in whole blood ([4]; time zero): 96% | maintenance of the respiratory burst [5, 7]: partially maintained | maintenance of the respiratory burst [5, 8]: substantially maintained

Compound: COC(=O)C[C@H](NC(=O)[C@H](C)NC(=O)[C@@H](NC(=O)OCc1ccccc1)C(C)C)C(=O)CF [zVADfmk, reference compound] (Cbz-Val-Ala-Asp(OMe)-CH2F)
maintenance of the respiratory burst ([5]; time not stated): did not maintain | effect on improving granulocyte survival ([6]; at 48 hours): weak effect

Compound: O=C(O)CC(NC(=O)[C@@H]1Cc2cccc3c2N1C(=O)[C@@H](NC(=O)OCc1ccccc1)CC3)C(=O)CF (some centres unmarked) [Example 106]
IC50 [6]: < 5 µM

Compound: CC(=O)N[C@@H](Cc1ccc(O)cc1)C(=O)N[C@H](C(=O)N[C@@H](C)C(=O)N[C@@H](CC(=O)O)C(=O)CCl)C(C)C [acetyl-YVAD-chloromethylketone]
death of motoneurons [3]: blocked

Compound: Cc1c(C(=O)N[C@H](C(=O)NC(CC(=O)O)C(=O)COC(=O)c2c(Cl)cccc2Cl)C(C)C)n(C)c2ccccc12 (some centres unmarked) [Example 70, N-[N-(1,3-dimethyl-indole-2-carbonyl)-valinyl]-3-amino-5-(2,6-dichlorobenzoyl)oxy-4-oxo-pentanoic Acid]
Percentage of diploid granulocytes in whole blood ([4]; 96 hours at room temperature): 89% | Percentage of diploid granulocytes in whole blood ([4]; time zero): 96% | maintenance of the respiratory burst [5, 7]: partially maintained | maintenance of the respiratory burst [5, 8]: substantially maintained | IC50 [6]: < 5 µM
